Key:
[1] = test system: Trichophyton interdigitale (NCPF 117); assay: Fungal growth sensitivity assay (absorbance at 540 nm); format: cell-based
Protocol: (§1) Trichophyton interdigitale (NCPF 117) and Trichophyton rubrum (NCPF 335) strains were obtained from the National Collection of Pathogenic Fungi, Bristol and maintained in culture by transfer at approximately monthly intervals on slopes of Sabuoraud's agar and Potato Dextrose Agar at 30° C. Candida albicans strain 3179 (obtained from the National Collection of Type Cultures [NCTC], Colindale) was maintained in Oxoid Mueller Hinton Broth at 37° C. Streptococcus pyogenes strain 8198, Staphylococcus aureus strain 10642 (methicillin-resistant), and E. coli 0157 strain 12900 were obtained from the NCTC, Colindale and maintained in Oxoid Mueller Hinton Broth at 37° C.
(§2) To determine the sensitivity of fungal strains to each of the test peptides, their impact on fungal growth was assessed as follows. Suspensions of T. interdigitale and T. rubrum conidia and hyphal fragments were prepared by adding 10 ml of fresh Nutrient Glucose Broth (NGB) (Oxoid Nutrient broth containing 2% w/v glucose) to a slope culture and agitating with a spatula. The resulting conidial/hyphal fragment suspension was filtered through 2 layers of sterile surgical gauze to remove large hyphal mats and pieces of agar. 20 μl of this suspension (absorbance at 540 nm around 0.1, corresponding to approx 10^6 propagules/ml) was inoculated into each well of sterile, 96 well microtitre plates to which a total volume 80 μl of nutrient medium (NGB) and the appropriate amount of peptide solution had previously been added. Control wells were those in which the final assay volume of 100 μl was made up with NGB medium alone, plus solvent (if applicable and at the same concentration as the peptide samples if so). Fungal growth within the plates was monitored by absorbance at 540 nm in a Microtek plate reader after 24 h, 4 day and 7 day incubations at 30° C.

[2] = test system: Trichophyton rubrum (NCPF 335); assay: as above; format: cell-based
Protocol: as §1
as §2, with “Fungal growth within the plates was monitored by absorbance at 540 nm in a Microtek plate reader after 24 h, 4 day and 7 day incubations at 30° C.” left out

[3] = test system: Streptococcus pyogenes strain 8198; assay: Bacterial survival assay; format: cell-based; conditions: range of concentrations; 3 h of exposure; dose dependent (FIG. 7)
Protocol: (§3) Streptococcus pyogenes strain 8198, Staphylococcus aureus strain 10642 (methicillin-resistant), and E. coli 0157 strain 12900 (all obtained from the NCTC, Colindale) were grown for 18-24 h then stored at 4° C. prior to use. Fresh cultures grown overnight were centrifuged at 2000×g for 10 min and washed with fresh Mueller Hinton Broth. Sensitivity to each of the four peptides was assayed as per C. albicans described above. For E. coli and S. aureus, the starting number of cells for the peptide sensitivity assay was 10^8/ml and the medium used for enumeration was Nutrient Agar (Oxoid). Str. pyogenes grew less well than the other strains on Mueller Hinton agar and so the starting number of cells for these assays was lower than that for the other strains, at 10^6/ml. Str. pyogenes survival was determined using Oxoid Tryptose Soya Agar in place of Nutrient Agar.
(§4) Three clinically relevant bacterial pathogens, E. coli 0157, methicillin-resistant Staphylococcus aureus (MRSA) and Streptococcus pyogenes, were exposed, as described previously in the materials and methods section, to a range of concentrations of peptide 4. After a period of 3 h, samples of each bacterial culture were transferred to appropriate solid phase growth media plates and the numbers of viable colonies in control (growth medium only) and treated (growth medium containing peptide 4) samples assessed after 18-24 h.

[4] = test system: Staphylococcus aureus strain 10642 (methicillin-resistant); assay: Bacterial survival assay; format: cell-based; conditions: range of concentrations; 3 h of exposure; dose dependent (FIG. 7)
Protocol: as §3, §4

[5] = test system: E. coli 0157 strain 12900; assay: Bacterial survival assay; format: cell-based, Escherichia coli; conditions: range of concentrations; 3 h of exposure; dose dependent (FIG. 7)
Protocol: as §3, §4

[6] = test system: Candida albicans strain 3179; assay: Candida albicans survival assay (viable counts); format: cell-based; conditions: for Survival of Candida albicans, antifungal activity compared with poly-L-lysine: 100 μg/ml, 1 mg/ml and 10 mg/ml, 2 hours at 37° C. (FIG. 19)
Protocol: as §1
To determine the sensitivity of fungal strains to each of the test peptides, their impact on Candida survival was assessed as follows. C. albicans cultures were grown for 18-24 h then stored at 4° C. prior to use. Fresh cultures grown overnight were centrifuged at 2000×g for 10 min and washed with fresh Mueller Hinton Broth, adjusting the number of viable cells to between 5×10^6 and 1×10^7/ml. Assay buffer was prepared by adding 100 μl of NGB medium to 6.9 ml of 10 mM sodium phosphate buffer, pH 7.7. 35 μl of assay buffer with or without a range of peptide concentrations was added to a sterile polypropylene screw-capped vial and 15 μl of the Candida albicans inoculum described above was added. The vials were incubated at 37° C. in a water bath for 2 h, and the number of Candida spp. surviving was determined by serial dilution in sterile phosphate buffered saline (PBS) and plating out onto 9 cm Petri dishes containing Oxoid Sabouraud's Agar (20 ml). Counts were made after incubation of these plates at 37° C. for 18-24 h.

[7] = test system: Candida albicans strain 3179; assay: Candida albicans growth by optical density (absorbance at 540 nm); format: cell-based; conditions: 50 or 100 and 300 or 500 μg/ml peptide; 24 h and 48 h; time and dose-dependent (FIG. 4)
Protocol: as §1
The yeast Candida albicans was cultured, as described previously in the materials and methods section, in growth medium alone (control cultures) or in growth medium containing 50 μg/ml or 100 μg/ml and 300 μg/ml or 500 μg/ml of peptide 1, 2, 3 or 4. Growth of C. albicans was assessed by measuring optical density (absorbance at 540 nm) after 24 h (FIG. 4a) and 48 h (FIG. 4b) in culture. […] In a separate experiment, C. albicans survival was assessed after 18-24 h in cultures grown in medium alone (controls) or those including a range of concentrations of peptide 4 spanning 1 μg/ml to 1000 μg/ml (FIG. 6).

[8] = 3 concentrations of Peptide 4, no acetic acid, 96 hours at 30° C. (FIG. 9)
[9] = 100 μg/ml, no acetic acid, 96 hours at 30° C. (FIG. 15)
[10] = 3 concentrations, no acetic acid, 96 hours at 30° C. (FIG. 14)
[11] = no acetic acid, 96 hours at 30° C. (FIG. 13)

CC(=O)O [acetic acid]
Growth of T. interdigitale ([1]; 0.5% acetic acid, 96 hours at 30° C. (FIG. 11)): significant effect | Growth of T. rubrum (OD) ([2]; 0.01% acetic acid alone, 3 days in culture (FIG. 8)): no significant effect

L-Arginine trimer [RRR]
Activity against T. rubrum compared among the trimers ([2]; 2 mg/ml of each trimer, 96 hours at 30° C. (FIG. 16)): most active peptide | Growth of T. rubrum (OD, percentage of the growth in the untreated culture) ([2]; 2 mg/ml of trimer, 96 hours at 30° C. (FIG. 16)): significant reduction in growth

Peptide 4: peptide of FIG. 1 (SEQ ID NO: 10); highly cationic peptide comprising lysine and arginine residues (KRKRKRKCRKRKRRCRKRKCKRKRKRKRKCRKRKRKCCRRKK)
Survival of Streptococcus pyogenes (viable colonies) [3]: significantly inhibited survival | Survival of methicillin-resistant Staphylococcus aureus (MRSA) (viable colonies) [4]: significantly inhibited survival | Growth of T. interdigitale (optical density, absorbance at 540 nm) ([1]; 50 μg/ml peptide, day 4 and 7, 0.5% acetic acid as solvent, compared to un-treated control (FIG. 2)): significantly inhibited | Growth of T. interdigitale (OD) [1, 8]: inhibitory effect | Growth of T. interdigitale (OD) ([1]; 7 days, no acetic acid solvent (FIG. 10)): significantly inhibit fungal growth | Effect of salt concentrations on antifungal activity towards T. interdigitale ([1]; Peptide 4 1.2 mg/ml, NaCl 100 mM to 500 mM, no acetic acid, 96 h at 30° C. (FIG. 17)): not affected | Peptide concentration at which growth of T. interdigitale was inhibited ([1]; no acetic acid, 96 hours at 30° C. (FIG. 9)): 0.55 mg/mL | Survival of E. coli 0157 (viable colonies) [5]: significantly inhibited survival | Survival of C. albicans (viability counts) ([6]; 1 μg/ml to 1000 μg/ml, after 24 h in culture (FIG. 6)): decreased in a dose-dependent manner | Survival of C. albicans at high salt concentrations ([6]; range of Peptide 4 concentrations, two concentrations of NaCl, 2 h incubation at 37° C. (FIG. 18)): Significant killing activity | Effect of salts on fungicidal activity against C. albicans ([6]; two concentrations of NaCl, 2 h incubation at 37° C. (FIG. 18)): not inhibited by salts | Growth of C. albicans (optical density, absorbance at 540 nm) [7]: significantly inhibited C. albicans growth | Growth of T. rubrum (optical density, absorbance at 540 nm) ([2]; 50 μg/ml peptide, day 4 and 7, 0.5% acetic acid as solvent, compared to un-treated control (FIG. 3)): significantly inhibited | Growth of T. rubrum (OD) ([2]; 1 mg/ml peptide 4 alone, 3 days in culture (FIG. 8)): inhibited T. rubrum growth | Growth of T. rubrum (OD) [2, 8]: inhibitory effect

Poly-D-lysine-HBr 4,000-15,000Da (27-100aa) [pKd27-100]
Survival of Candida albicans, antifungal activity compared with poly-L-lysine [6]: very similar antifungal activity to the poly-L-lysine

Poly-L-arginine-HCl 5,000-15,000 (28-86aa) [pR28-86]
Growth of T. interdigitale (OD) [1, 9]: loss of activity | Concentration down to which active against T. interdigitale [1, 10]: 0.55 mg/mL | Survival of Candida albicans, antifungal activity compared with poly-L-lysine [6]: increased antifungal activity | Growth of T. rubrum (OD) [2, 9]: loss of activity | Growth of T. rubrum ([2]; 1 mg/ml, no acetic acid, 96 hours at 30° C. (FIG. 13)): totally inhibiting growth | Concentration down to which active against T. rubrum [2, 10]: 0.55 mg/mL | Inhibitory impact against T. rubrum compared with poly-L-Lysine ([2]; equivalent doses, no acetic acid, 96 hours at 30° C. (FIG. 13)): more active | Growth of T. rubrum [2, 11]: inhibited the growth

Poly-L-lysine-HCl 15,000-30,000Da (100-200aa) [pK100-200]
Growth of T. interdigitale ([1]; between 1 mg/ml and 50 μg/ml, no acetic acid, 96 hours at 30° C. (FIG. 12)): inhibited growth at all concentrations tested | Growth of T. rubrum [2, 11]: inhibited the growth

Source: patent US8470769B2, “Method of treatment of bacterial infection by administration of poly-lysine” (priority 2004, dated 2013)
